Experimental findings from patent US8642640B2, “1-phenylpyrrole derivatives” (Exelixis, Inc., priority 2008, dated 2014) are described below.

Data set [1] can be described thus: Plasma concentration after intragastric administration to cynomolgus monkey (Test Example 2). In kind it is in vivo. As to the method: Cynomolgus monkey (male) was used, and it was fasted from the day before administration of the test compound.
Administration samples were prepared by adding a 0.5% MC (methyl cellulose) solution to the Test Compound, so that the dose becomes 3 mg/2 mL/kg. Each of the administration samples was administered intragastrically to the cynomolgus monkey by using a tube. After the samples were administered, approximately 5 mL of 0.5% MC was administered. For each of the administration samples, a group of two cynomolgus monkeys was administered.
With respect to collection of blood, it was conducted by collecting approximately 0.5 mL of blood from crotch vein using a glass syringe treated with heparin, before administration, and 30 minutes, 1, 2, 4, 6, 8, 24 and 48 hours after administration. Blood was centrifuged (1,700×g, 15 min, 4° C.) to obtain plasma. Plasma was stored in a freezer (−20° C.) until pretreatment.
Preparation of standard solution and internal standard (IS) solution: Each of the Test Compounds was dissolved in DMSO (dimethyl sulfoxide) to prepare a solution of 10 mM each. Each of the compound solution was diluted with acetonitrile, and thus standard solution was prepared. Further, niflumic acid (Wako Pure Chemical Industries, Ltd.) was dissolved in DMSO at the concentration of 2 mM, followed by dilution with acetonitrile to prepare an IS solution of 2 μM.
Pretreatment of plasma samples: 20 μL of plasma sample was collected, and then 25 μL of purified water, 100 μL of acetonitrile, and 100 μL of methanol was added. For the preparation of a calibration curve, 25 μL of purified water, 20 μL of each of the standard solutions (acetonitrile solution), 80 μL of acetonitrile, and 100 μL of methanol were added to 20 μL of blank plasma. 40 μL of the acetonitrile solution of IS was added to all of the samples, and then the samples were stirred, filtered by suction using Captiva filter plate (Varian, Inc.), and then the filtrate was used as the sample for LC-MS/MS analysis.
Quantitative Determination of Test Compound: Concentration in plasma was analyzed by LC-MS/MS method for each Test Compound.
Analysis: Pharmacokinetic parameter was calculated from concentration of each of the drugs in plasma, by using WinNonlin Professional (Ver. 4.0.1, Pharsight Corporation). Here, Noncompartment model was used as the model for parameter calculation.

The target in data set [2] is T1, human mineralocorticoid receptor (hMR) (Homo sapiens, UniProt P08235).
T1 construct: expressed in transfected cells; host or cells: HEK293
T1 sequence (P08235 726-964 limits assumed): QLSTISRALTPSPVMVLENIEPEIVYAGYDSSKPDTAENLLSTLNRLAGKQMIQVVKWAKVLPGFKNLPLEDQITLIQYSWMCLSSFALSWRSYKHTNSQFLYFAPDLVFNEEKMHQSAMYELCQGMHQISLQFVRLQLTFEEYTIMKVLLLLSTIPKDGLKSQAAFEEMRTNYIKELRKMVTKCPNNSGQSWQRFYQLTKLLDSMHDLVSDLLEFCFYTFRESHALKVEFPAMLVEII
Put plainly: GAL4-hMR-LBD luciferase reporter assay in HEK293 cells with 1 nM aldosterone (Test Example 1).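 For Imax: 0% is DMSO-only control and 100% is 1 nM aldosterone alone.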 In kind it is cell-based. As to conditions: for Emax: HEK293, read-out: Imax; for IC50: concentration showing Imax/2, HEK293, GAL4-hMR-LBD, 1 nM aldosterone, overnight, read-out: ICmax50. As to the method:
A plasmid pM-hMR-LBD expressing GAL4-hMR receptor, which has a ligand binding domain (LBD, corresponding to approximately 308 amino acids at the carboxy terminus) of human mineralocorticoid receptor (hMR, NM_000901) bonded to a DNA binding domain of yeast transcription factor GAL4 (corresponding to 147 amino acids at the amino terminus), was prepared. Reporter assay was conducted by using a reporter plasmid (such as plasmid pFR-Luc of […] CLONING SYSTEMS) including a luciferase gene, having a sequence (UAS sequence) which binds to the DNA binding domain of GAL4.
The plasmid pM-hMR-LBD and the reporter plasmid as obtained above were gene transferred into renal cell line HEK293 of human fetus by lipofection. On the next day, cells were collected by trypsin treatment, and dispensed with DMEM culture medium containing 5% of FBS treated by activated charcoal, to a white 96-well plate (Costar) with the amount of 95 microliter per well.
The test compounds were used as dissolved in dimethyl sulfoxide at a predetermined concentration, and the test compounds suitably diluted with culture media were added to the cells on the white 96-well plate so that the final concentration becomes 0.1%. […] After the addition, cultivation was carried out overnight.
On the next day, the culture media was removed, and then luciferase substrate (Wako Pure Chemical Industries, Ltd.) was prepared in accordance with the attached document and were added to each well by 50 microliters. Stirring was conducted for approximately 30 minutes, and the amount of luminescence was measured for each well by using Analyst (Molecular Devices), to obtain luciferase activity. A graph which plots relative luciferase activity values, when the luciferase activity value of Control group 1 was taken as 0% and the luciferase activity value of Control group 2 was taken as 100%, for each of the amount of the test compound addition group was made.

On to `Cc1c(C(=O)Nc2ccc(S(C)(=O)=O)cc2)cc(CCO)n1-c1ccc(F)cc1C(F)(F)F` [Example 62, 1-[4-Fluoro-2-(trifluoromethyl)phenyl]-5-(2-hydroxyethyl)-2-methyl-N-[4-(methylsulfonyl)phenyl]-1H-pyrrole-3-carboxamide], for which the “AUC, area under the plasma concentration versus time curve” value in data set [1] (male cynomolgus monkey, 3 mg/kg intragastric in 0.5% MC, plasma, LC-MS/MS, noncompartment model) amounted to 8060 ng·h/mL. In addition, in data set [1] (po, male cynomolgus monkey, 3 mg/kg intragastric in 0.5% MC, plasma, LC-MS/MS, read-out: Cmax, maximum concentration), the Cmax turned out to be 660 ng/mL. For the same molecule, the “concentration in plasma compared with Reference compound A and Reference compound B” value in data set [1] (summary of Table 16, cynomolgus monkey, 3 mg/kg) was “considerably improved concentration in plasma”. On to `Cc1c(C(=O)Nc2ccc(S(C)(=O)=O)cc2)cc(C[C@H](C)O)n1-c1ccc(Cl)cc1OC(F)F` [Example 11, 1-[4-Chloro-2-(difluoromethoxy)phenyl]-5-[(2S)-2-hydroxypropyl]-2-methyl-N-[4-(methylsulfonyl)phenyl]-1H-pyrrole-3-carboxamide], for which, in data set [2], the Emax was found to be 107% and the IC50 turned out to be 13 nM. With `CCc1c(C(=O)Nc2ccc(S(C)(=O)=O)cc2)cc(C[C@H](C)O)n1-c1ccc(F)cc1Cl` [Example 44, 1-(2-Chloro-4-fluorophenyl)-2-ethyl-5-[(2S)-2-hydroxypropyl]-N-[4-(methylsulfonyl)phenyl]-1H-pyrrole-3-carboxamide], in data set [2], the Emax amounted to 111% and the IC50 was found to be 24 nM.

Take `Cc1c(C(=O)Nc2ccc(S(C)(=O)=O)cc2)cc(C[C@H](C)O)n1-c1ccc(F)cc1OC(F)F` (single isomer, unassigned) [Example 9 - isomer B]: the IC50 in data set [2] was above 1000 nM. Consider `Cc1c(C(=O)Nc2ccc(S(C)(=O)=O)cc2)cc(C[C@H](C)O)n1-c1ccc(Cl)cc1Cl` [Example 43, 1-(2,4-Dichlorophenyl)-5-[(2S)-2-hydroxypropyl]-2-methyl-N-[4-(methylsulfonyl)phenyl]-1H-pyrrole-3-carboxamide], for which, in data set [2], the Emax worked out at 100% and the IC50 amounted to 40 nM. In the case of `Cc1c(C(=O)Nc2ccc(S(C)(=O)=O)cc2)cc(C[C@H](C)O)n1-c1ccc(F)cc1C(F)(F)F` (single isomer, unassigned) [Example 5 - isomer B], the IC50 in data set [2] is above 1000 nM. Still for that read-out and setting: the value for `Cc1c(C(=O)Nc2ccc(S(C)(=O)=O)cc2)cc(C[C@H](C)O)n1-c1ccc(Cl)cc1-c1ccc(F)cc1` (single isomer, unassigned) [Example 50 - isomer A] was above 1000 nM. In the case of `Cc1cc(Cl)ccc1-n1c(CCF)cc(C(=O)Nc2ccc(S(C)(=O)=O)cc2)c1C` [Example 51, 1-(4-Chloro-2-methylphenyl)-5-(2-fluoroethyl)-2-methyl-N-[4-(methylsulfonyl)phenyl]-1H-pyrrole-3-carboxamide], in data set [2], the Emax stood at 115% and the IC50 was 19 nM. Consider `Cc1c(C(=O)Nc2ccc(S(C)(=O)=O)cc2)cc(CCO)n1-c1ccc(F)cc1Cl` (single isomer, unassigned) [Example 3 - isomer B, 1-(2-Chloro-4-fluorophenyl)-5-(2-hydroxyethyl)-2-methyl-N-[4-(methylsulfonyl)phenyl]-1H-pyrrole-3-carboxamide], for which, in data set [2], the IC50 was above 1000 nM. With `Cc1c(C(=O)Nc2ccc(S(C)(=O)=O)cc2)cc(C[C@H](C)O)n1-c1ccc(F)cc1OC(F)F` [Example 9, 1-[2-(Difluoromethoxy)-4-fluorophenyl]-5-[(2S)-2-hydroxypropyl]-2-methyl-N-[4-(methylsulfonyl)phenyl]-1H-pyrrole-3-carboxamide], in data set [2], the Emax worked out at 114% and the IC50 is 41 nM. In the same order, the values of `Cc1cc(NC(=O)c2cc(C[C@H](C)O)n(-c3ccc(F)cc3OC(F)F)c2C)ccc1S(C)(=O)=O` [Example 22, 1-[2-(Difluoromethoxy)-4-fluorophenyl]-5-[(2S)-2-hydroxypropyl]-2-methyl-N-[3-methyl-4-(methylsulfonyl)phenyl]-1H-pyrrole-3-carboxamide] are 111% and 9.1 nM. As for `Cc1c(C(=O)Nc2ccc(S(C)(=O)=O)cc2)cc(CCF)n1-c1ccc(F)cc1OC(F)F` (single isomer, unassigned) [Example 54 - isomer B, 1-[2-(Difluoromethoxy)-4-fluorophenyl]-5-(2-fluoroethyl)-2-methyl-N-[4-(methylsulfonyl)phenyl]-1H-pyrrole-3-carboxamide], the IC50 in data set [2] is above 1000 nM.

On to `Cc1c(C(=O)Nc2ccc(S(C)(=O)=O)cc2)cc(C[C@H](C)O)n1-c1ccc(Cl)cc1Oc1ccc(F)cc1` (single isomer, unassigned) [Example 45 - isomer B], for which the IC50 in data set [2] is above 1000 nM.

On to `Cc1c(C(=O)Nc2ccc(S(C)(=O)=O)cc2)cc(C[C@H](C)O)n1-c1ccc(Cl)cc1OC(F)F` (single isomer, unassigned) [Example 11 - isomer B], for which, in data set [2], the IC50 was above 1000 nM. The same measure, in the same setting: the value for `Cc1cc(Cl)ccc1-n1c(CCF)cc(C(=O)Nc2ccc(S(C)(=O)=O)cc2)c1C` (single isomer, unassigned) [Example 51 - isomer B, 1-(4-Chloro-2-methylphenyl)-5-(2-fluoroethyl)-2-methyl-N-[4-(methylsulfonyl)phenyl]-1H-pyrrole-3-carboxamide] was above 1000 nM. With `Cc1c(C(=O)Nc2ccc(S(C)(=O)=O)cc2)cc(C[C@H](C)O)n1-c1ccc(Cl)cc1Oc1ccc(F)cc1` [Example 45, 1-[4-Chloro-2-(4-fluorophenoxy)phenyl]-5-[(2S)-2-hydroxypropyl]-2-methyl-N-[4-(methylsulfonyl)phenyl]-1H-pyrrole-3-carboxamide], in data set [2], the Emax was 85% and the IC50 was 7.1 nM.

`Cc1c(C(=O)Nc2ccc(S(C)(=O)=O)cc2)cc(C[C@H](C)O)n1-c1ccc(Cl)cc1-c1ccc(F)cc1` [Example 50, 1-(5-Chloro-4′-fluorobiphenyl-2-yl)-5-[(2S)-2-hydroxypropyl]-2-methyl-N-[4-(methylsulfonyl)phenyl]-1H-pyrrole-3-carboxamide]: in data set [2], the Emax came to 114% and the IC50 stood at 2.7 nM.

Consider `Cc1c(C(=O)Nc2ccc(S(N)(=O)=O)c(Cl)c2)cc(C[C@H](C)O)n1-c1ccc(F)cc1Cl` (single isomer, unassigned) [Example 49 - isomer B], for which, in data set [2], the Emax was determined as 104% and the IC50 is 4.5 nM. In the case of `Cc1c(C(=O)Nc2ccc(S(C)(=O)=O)cc2)cc(C[C@H](C)O)n1-c1ccc(F)cc1OC(F)(F)F` (single isomer, unassigned) [Example 16 - isomer B], the IC50 in data set [2] was above 1000 nM.

`Cc1cc(NC(=O)c2cc(C[C@H](C)O)n(-c3ccc(F)cc3OC(F)F)c2C)ccc1S(C)(=O)=O` (single isomer, unassigned) [Example 22 - isomer B]: the IC50 in data set [2] was above 1000 nM.

Regarding `Cc1c(C(=O)Nc2ccc(S(C)(=O)=O)cc2)cc(CCO)n1-c1ccc(F)cc1Cl` (single isomer, unassigned) [Example 3 - isomer A, 1-(2-Chloro-4-fluorophenyl)-5-(2-hydroxyethyl)-2-methyl-N-[4-(methylsulfonyl)phenyl]-1H-pyrrole-3-carboxamide], in data set [2], the Emax worked out at 114% and the IC50 amounted to 21 nM.
